What was measured:
Format in all cases: in vivo, human
[1] = tested on: healthy, obese adults with normal blood pressure; test: Effect of betaine on blood pressure, controlled randomized double-blinded 12-week intervention study
From the text: (§1) The effects of betaine supplementation on blood pressure, and in addition on body weight, body composition, resting energy expenditure, and concentrations of serum total and lipoprotein lipids and plasma homocysteine in humans, were studied. The participants were healthy, obese adults with normal blood pressure.
(§2) Forty-two subjects (14 males, 28 females) without any chronic disease and with normal liver, kidney and thyroid function participated in the study. The inclusion criteria for body mass index (BMI) was 28-40 kg/m^2 and for age 25-60 years. Serum concentration of total triglycerides had to be <3.5 mmol/l and that of total cholesterol <7.5 mmol/l. Inclusion criteria for fasting concentration of plasma glucose was <6.7 mmol/l. Subjects with lipid lowering medication were excluded as well women with perimenopause. Four women were postmenopausal in the control group and 6 were postmenopausal in the betaine group. None of the participants were on a medication for hypertension.
(§3) The study was a controlled, randomized double-blinded parallel study. […] Grapefruit juice was added to simulate the bitter taste of betaine. The subjects were on their regular eucaloric diet during this period. For the intervention period with a hypocaloric (−2100 kJ or −500 kcal) diet the subjects were randomly assigned in two groups (20 for the control group, 22 for the betaine group). The subjects were matched for BMI, gender and menstrual cycle.
(§4) The control group consumed orange juice 1 dl twice a day and the betaine group consumed betaine enriched orange juice 1 dl twice a day. The amount of betaine was 3 g per 1 dl orange juice, giving a daily betaine dose of 6 g.
The data were analyzed with the SPSS/PC+ statistics program (V8.0, SPSS; Chicago, Ill.). Before further analyses, normal distribution of the variables was checked with the Kolmogorov-Smimov test with Lilliefors significance correction. Variables with abnormal distribution (TG) were logarithmized and the logarithmized values were used in further analyses. GLM for repeated measures was used to test the changes within time. In cases the result of this analysis was significant paired t-test was used for two-tailed comparisons within the groups. Student's t-test was used for between-group comparisons. […] All data are expressed as mean±SD.
Blood pressure was measured from the right arm after five minutes of rest in sitting position using a zero mercury sphygmomanometer. Two measurements were performed and the mean of them was calculated and used for further analyses.

homocysteine = test: Total homocysteine by HPLC in the intervention study
From the text: as §1, §2, §3, §4
Plasma total homocysteine was determined by a modification of the highpressure liquid chromatographic method described by Ubbink et al. (Ubbink, J. B., Vermaak, W. J. H., Bissbort, S. Rapid high-performance liquid chromatographic assay for total homocysteine levels in human serum. J Chromatogr (1991) 565:441446). The modified mobile phase consisted of 0.37 mol/l acetate and 0.5% methanol, pH 4.15.

[2] = tested on: healthy, obese adults with normal blood pressure; test: Tolerability of the daily betaine dose in the intervention study; settings: 6 g daily dose, 12 weeks
From the text: as §1, §2
as §3, with “The subjects were matched for BMI, gender and menstrual cycle.” left out

[3] = Betaine absorption and excretion: blood, serum and urine levels after administration
Method: There was, however, no clear correlation between blood and urine betaine levels. After administration of 1, 3 or 6 g betaine an amount of about 3, 5 and 7%, respectively, was recovered as betaine and dimethylglycine (DMG) in 24 h urine. After loading betaine 100 mg/kg, peak serum concentrations were found 1-2 h after loading; the concentrations varying a lot with indiviudual (148-258 μmol/l).

[4] = 4 wk (beginning of intervention period), betaine group, mean ± SD

- Time of peak serum concentrations after loading ([3]; loading betaine 100 mg/kg): 1 to 2 h
- Peak serum concentrations ([3]; loading betaine 100 mg/kg, varying with individual): 148 to 258 µmol/L
- Betaine in blood and urine of persons given betaine (result in words) ([3]; persons given betaine in the study): Significantly increased amounts
SMILES: C[N+](C)(C)CC(=O)[O-] [Betaine, trimethylglycine]
- Diastolic blood pressure [1, 4]: 85.4 ± 7.9 mmHg
- Systolic blood pressure [1, 4]: 122.5 ± 9.5 mmHg
- Change in diastolic blood pressure during the intervention period ([1]; 12-week intervention, betaine 6 g daily, mean ± SD, P=0.219 vs control group): −4.9 ± 6.6 mmHg
- Change in systolic blood pressure during the intervention period ([1]; 12-week intervention, betaine 6 g daily, mean ± SD, P=0.740 vs control group): −1.4 ± 8.0 mmHg
- Diastolic blood pressure ([1]; 16 wk (end of intervention period), betaine 6 g daily in orange juice, mean ± SD, P=0.002 vs 4 wk): 80.5 ± 7.1 mmHg
- Systolic blood pressure ([1]; 16 wk (end of intervention period), betaine 6 g daily in orange juice, mean ± SD, P=0.432 vs 4 wk): 121.1 ± 9.4 mmHg
- Diastolic blood pressure (result in words) ([1]; betaine group, normotensive subjects, 4 wk vs 16 wk): decreased significantly
- Serum homocysteine concentration (homocysteine; 4 wk (beginning of intervention), betaine group, mean ± SD): 8.76 ± 1.63 µmol/L
- Serum homocysteine concentration (homocysteine; 16 wk (end of intervention), betaine 6 g daily, P=0.025 vs 4 wk): 7.93 ± 1.52 µmol/L
- Change in serum homocysteine concentration during the intervention period (homocysteine; betaine 6 g daily, P=0.030 vs control group): -0.83 ± 0.34 µmol/L
- Side effects [2]: no side effects were observed
- Tolerability [2]: well tolerated
